From patent US20030113322A1, “CDR-H1-derived peptide CB11, pharmaceutical compositions made therefrom and methods of treating disorders in mammals” (priority 2001, published 2003)
Positions of bridges follow the written chain, without caps; N, C: chain ends. Residues, ends and D or L forms follow the SMILES beside them. No end group written: not given here.

Columns and labels:
[1] = test system: pdb10F T cells stimulated by pep24-pulsed EBV-Lu antigen-presenting cells; assay: IL-2 secretion assay following antigen presentation; assay type: cell-based, murine; conditions: for inhibition of IL2 secretion: Example 2, Table 1 (table not given)
[2] = test system: HeLa P4 indicator cells infected with HIV-1Lai; assay: HIV-1 promoter activation assay (LTR-driven β-galactosidase); assay type: cell-based
Experimental: (§1) HeLa P4 indicator cells (8×10^4 cells/ml) were cultured in medium supplemented or not with infectious HIV-1Lai in the presence or absence of antibodies for three days, harvested and lysed. β-galactosidase activity was then determined as previously described by measuring the absorbance at 410 nm.
as §1, with “with 1000 TCID50 of” for “with”, “peptides or mAb” for “antibodies”, “3” for “three”, “lysed. The” for “lysed.”, “activities were” for “activity was”

His6-sCD4 = target: T1, His6-sCD4 (Homo sapiens, UniProt P01730); assay: ELISA binding of His6-sCD4 to coated cyclic PDPs; conditions: 20 nM His6-sCD4, FIG. 8
T1 construct: codons 1 to 6, and the anti-sense primer SCD4RTB (5′-[…]), which contains the reverse complement of codons 367 to 372; made in house; host or cells: Spodoptera frugiperda Sf9 cells, baculovirus (p119L vector, P10 promoter)
Experimental: Three replicates corresponding to 10-fold serial dilutions of the nine cyclic PDPs (CB1-CB9) were coated overnight at 4° C. onto 96-well ELISA plates (Nunc. Paisley, UK) with an initial peptide concentration of 50 μM. Four washes in 160 mM PBS, pH 7.2, containing 0.1% Tween 20 (PBS-T) were performed before and after saturating the wells with 1% non-fat dry milk in PBT-T for 1 h at 37° C. Thereafter, 100 μl of 20 nM His6-sCD4 was added to each well. Following a 2 h incubation and four washes in PBS-T, bound His6-sCD4 was detected by addition of 100 μl of a 1:2000 solution of peroxidase-conjugated anti-His6 mAb (Sigma) and subsequent addition of peroxidase substrate. Absorbance was measured at 490 nm.

[3] = assay type: in vitro ADME
From the text: A relatively high concentration of peptides is preferred to achieve efficient biological activity with regard to the efficient antibody dose. […] We believe that use of D-amino acids for peptide synthesis would improve their metabolic stability.

[4] = peptide diluted in 20% acetonitrile buffer

| Molecule | inhibition of IL2 secretion [1] | inhibition of HIV-1Lai LTR-driven β-galactosidase expression ([2]; Example 2, 3 days, FIG. 10A) | CD4 binding of coated cyclic peptide (His6-sCD4) | inhibition of HIV-1Lai LTR-driven β-galactosidase expression [2, 4] | also measured |
| --- | --- | --- | --- | --- | --- |
| GSDQWNKMQYYP (not fully specified (N-terminus, C-terminus, bridges); also: cyclized (bridge not given here)) [ScCM9, scrambled form of PDP CM9, Lys-Cys added at both termini, reference compound] | no inhibition | did not affect | non-reactivity | – | – |
| CC[C@H](C)[C@@H]1NC(=O)[C@@H](NC(=O)[C@@H](N)CCCCN)CSSC[C@@H](C(=O)N[C@@H](CCCCN)C(N)=O)NC(=O)[C@H](CCC(N)=O)NC(=O)[C@H](CCCCN)NC(=O)[C@H](CCC(N)=O)NC(=O)[C@H](CCC(N)=O)NC(=O)[C@H](Cc2ccc(O)cc2)NC(=O)[C@H](Cc2c[nH]c3ccccc23)NC(=O)[C@H](C)NC(=O)[C@H](CC(C)C)NC(=O)[C@H](Cc2ccc(O)cc2)NC(=O)[C@H](CO)NC(=O)[C@H](Cc2ccc(O)cc2)NC1=O [CB8] (H-KCIYSYLAWYQQKQCK-NH2; disulfide 2-15) | lack of activity | – | – | lack of activity | – |
| KEEICEVEDQTY (not fully specified (N-terminus, C-terminus, bridges); also: cyclized (bridge not given here)) [ScCDR3-like, scrambled form of the CD4-derived CDR3-like peptide] | – | – | non-reactivity | – | – |
| CC(C)C[C@@H]1NC(=O)[C@@H](NC(=O)[C@@H](N)CCCCN)CSSC[C@@H](C(=O)N[C@@H](CCCCN)C(N)=O)NC(=O)[C@H](CO)NC(=O)[C@H](CCC(N)=O)NC(=O)[C@H](CCCNC(=N)N)NC(=O)[C@H](C(C)C)NC(=O)[C@H](Cc2c[nH]c3ccccc23)NC(=O)[C@H](Cc2c[nH]cn2)NC(=O)[C@H](C(C)C)NC(=O)CNC(=O)[C@H](Cc2ccccc2)NC(=O)[C@H]([C@@H](C)O)NC(=O)[C@H]([C@@H](C)O)NC1=O [CB1] (H-KCLTTFGVHWVRQSCK-NH2; disulfide 2-15; N-terminus and C-terminus assumed) | – | – | – | no inhibition | concentration range with inhibitory activity of IL2 secretion ([1]; Example 2): 125 to 250 µM; inhibition of HIV-1Lai LTR-driven β-galactosidase expression ([2]; 50 μM peptide, 3 days, FIG. 10A): significant inhibition; IC50 ([2]; FIG. 10B, read-out: IC50 of inhibition of β-galactosidase activity): ~15 µM; decrease in binding of CD4 to peptide after pre-incubation [3]: 50% |
| FGDYYCLQYASS (not fully specified (N-terminus, C-terminus, bridges); also: cyclized (bridge not given here)) [Dig97c, unrelated peptide derived from the CDR-L3 region of the anti-digoxin 1C10 mAb, reference compound] | – | did not affect | – | – | – |
